This is an account of results in ChEMBL document CHEMBL1150075, “Apiosporamide, a new antifungal agent from the coprophilous fungus Apiospora montagnei” (1994).

One assay deals with Bacillus subtilis. Nature of the assay: Antibacterial activity against Bacillus subtilis ATCC 6051 at 200 ug/disk. The class given is functional. Particulars: read-out: IZ.
The test system of another assay is Staphylococcus aureus. In words: Antibacterial activity against Staphylococcus aureus ATCC 29213 at 200 ug/disk. Type of assay: functional. Particulars: read-out: IZ.
Another assay relates to Candida albicans. In words: Antifungal activity against Candida albicans ATCC 14053 at 200 ug/disk. The class given is functional, organism-based.
For a further assay, the system named is Ascobolus. In words: Antifungal activity against Ascobolus furfuraceus NRRL 6460 assessed as inhibition of radial growth rate at 200 ug/disk relative to control. The class given is functional. Also noted: scale not given: the % may be the effect or the level left.

The structures appear in SMILES notation. Activity calls are given as the source filed them. The calls are words filed in the database; no cut-off is given here.

Turning to `C[C@H]1CC[C@@H]2[C@@H](C(=O)c3c(O)c([C@]4(O)CC[C@@H](O)[C@H]5O[C@H]54)c[nH]c3=O)[C@@H](C)C=C[C@H]2C1` [APIOSPORAMIDE], the results for the zone of inhibition at 200 µg/disc in the assay with Bacillus subtilis and in the assay on Staphylococcus aureus were 32 mm and 21 mm, respectively. Besides, the outcome in the assay on Candida albicans was inactive. Besides, in the assay on Ascobolus, the Activity is on record as 53%.
